Data published in the supplement of paper PMC10307832.

Key:
Experiment in all cases: relative viability (nuclei count vs DMSO), 5 days (fraction); higher = more cells survive
[1] = test system: 201T
In short: (§1)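 Relative viability is defined as nuclei in treated wells over nuclei in vehicle wells. Duplicate plates were run and medians reported. Lung cancer cell lines in 1536-well plates were dosed by pin tool one day after seeding, with one drug or with a fixed anchor-drug dose plus five library-drug doses (not always all listed) in √10 steps, and nuclei were counted after 5 days.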

[2] = test system: COR-L23
In short: as §1

[3] = test system: H3255
In short: as §1

[4] = test system: HARA
In short: as §1

[5] = test system: HCC-366
In short: as §1

[6] = test system: HCC-78
In short: as §1

[7] = test system: LU99A
In short: as §1

[8] = test system: NCI-H1650
In short: as §1

[9] = test system: NCI-H1651
In short: as §1

[10] = test system: NCI-H1755
In short: as §1

[11] = test system: NCI-H1793
In short: as §1

[12] = test system: NCI-H2085
In short: as §1

[13] = test system: NCI-H2087
In short: as §1

[14] = test system: NCI-H23
In short: as §1

[15] = test system: NCI-H3122
In short: as §1

[16] = test system: NCI-H322M
In short: as §1

[17] = test system: NCI-H358
In short: as §1

[18] = test system: NCI-H460
In short: as §1

[19] = test system: NCI-H522
In short: as §1

[20] = test system: NCI-H596
In short: as §1

[21] = test system: NCI-H650
In short: as §1

[22] = test system: PC-3 [JPC-3]
In short: as §1

[23] = test system: SK-LU-1
In short: as §1

Cc1cn(-c2cc(NC(=O)c3ccc(C)c(Nc4nccc(-c5cccnc5)n4)c3)cc(C(F)(F)F)c2)cn1 [Nilotinib] + Cc1cc(Nc2cc(N3CCN(C)CC3)nc(Sc3ccc(NC(=O)C4CC4)cc3)n2)n[nH]1 [Tozasertib] (partner 0.1 µM)
relative viability ([1]; first compound 0.003162 µM): 1.18
relative viability ([1]; first compound 0.01 µM): 0.976
relative viability ([1]; first compound 0.03162 µM): 0.691
relative viability ([1]; first compound 0.1 µM): 0.634
relative viability ([2]; first compound 0.001 µM): 0.143
relative viability ([2]; first compound 0.003162 µM): 0.132
relative viability ([2]; first compound 0.01 µM): 0.134
relative viability ([2]; first compound 0.03162 µM): 0.158
relative viability ([2]; first compound 0.1 µM): 0.126
relative viability ([3]; first compound 0.001 µM): 0.532
relative viability ([3]; first compound 0.003162 µM): 0.516
relative viability ([3]; first compound 0.03162 µM): 0.48
relative viability ([3]; first compound 0.1 µM): 0.717
relative viability ([4]; first compound 0.001 µM): 0.0752
relative viability ([4]; first compound 0.003162 µM): 0.102
relative viability ([4]; first compound 0.01 µM): 0.102
relative viability ([4]; first compound 0.03162 µM): 0.0999
relative viability ([4]; first compound 0.1 µM): 0.0992
relative viability ([5]; first compound 0.001 µM): 0.0811
relative viability ([5]; first compound 0.003162 µM): 0.057
relative viability ([5]; first compound 0.01 µM): 0.0646
relative viability ([5]; first compound 0.03162 µM): 0.072
relative viability ([5]; first compound 0.1 µM): 0.05
relative viability ([6]; first compound 0.001 µM): 0.408
relative viability ([6]; first compound 0.003162 µM): 0.373
relative viability ([6]; first compound 0.01 µM): 0.479
relative viability ([6]; first compound 0.03162 µM): 0.331
relative viability ([6]; first compound 0.1 µM): 0.28
relative viability ([7]; first compound 0.001 µM): 0.232
relative viability ([7]; first compound 0.003162 µM): 0.268
relative viability ([7]; first compound 0.01 µM): 0.211
relative viability ([7]; first compound 0.03162 µM): 0.256
relative viability ([7]; first compound 0.1 µM): 0.226
relative viability ([8]; first compound 0.001 µM): 0.329
relative viability ([8]; first compound 0.003162 µM): 0.355
relative viability ([8]; first compound 0.01 µM): 0.324
relative viability ([8]; first compound 0.03162 µM): 0.324
relative viability ([8]; first compound 0.1 µM): 0.256
relative viability ([9]; first compound 0.001 µM): 0.458
relative viability ([9]; first compound 0.003162 µM): 0.584
relative viability ([9]; first compound 0.01 µM): 0.405
relative viability ([9]; first compound 0.03162 µM): 0.249
relative viability ([9]; first compound 0.1 µM): 0.275
relative viability ([10]; first compound 0.001 µM): 0.537
relative viability ([10]; first compound 0.003162 µM): 0.548
relative viability ([10]; first compound 0.01 µM): 0.483
relative viability ([10]; first compound 0.03162 µM): 0.578
relative viability ([10]; first compound 0.1 µM): 0.415
relative viability ([11]; first compound 0.001 µM): 0.248
relative viability ([11]; first compound 0.003162 µM): 0.298
relative viability ([11]; first compound 0.01 µM): 0.3
relative viability ([11]; first compound 0.03162 µM): 0.306
relative viability ([11]; first compound 0.1 µM): 0.296
relative viability ([12]; first compound 0.001 µM): 0.616
relative viability ([12]; first compound 0.003162 µM): 0.593
relative viability ([12]; first compound 0.01 µM): 0.585
relative viability ([12]; first compound 0.03162 µM): 0.47
relative viability ([12]; first compound 0.1 µM): 0.427
relative viability ([13]; first compound 0.001 µM): 0.195
relative viability ([13]; first compound 0.003162 µM): 0.24
relative viability ([13]; first compound 0.01 µM): 0.202
relative viability ([13]; first compound 0.03162 µM): 0.19
relative viability ([13]; first compound 0.1 µM): 0.197
relative viability ([14]; first compound 0.001 µM): 0.303
relative viability ([14]; first compound 0.003162 µM): 0.329
relative viability ([14]; first compound 0.01 µM): 0.283
relative viability ([14]; first compound 0.03162 µM): 0.247
relative viability ([14]; first compound 0.1 µM): 0.226
relative viability ([15]; first compound 0.001 µM): 0.364
relative viability ([15]; first compound 0.003162 µM): 0.519
relative viability ([15]; first compound 0.01 µM): 0.436
relative viability ([15]; first compound 0.03162 µM): 0.374
relative viability ([15]; first compound 0.1 µM): 0.18
relative viability ([16]; first compound 0.001 µM): 0.471
relative viability ([16]; first compound 0.003162 µM): 0.427
relative viability ([16]; first compound 0.01 µM): 0.492
relative viability ([16]; first compound 0.03162 µM): 0.456
relative viability ([16]; first compound 0.1 µM): 0.548
relative viability ([17]; first compound 0.001 µM): 0.0908
relative viability ([17]; first compound 0.003162 µM): 0.0985
relative viability ([17]; first compound 0.01 µM): 0.0881
relative viability ([17]; first compound 0.03162 µM): 0.101
relative viability ([17]; first compound 0.1 µM): 0.116
relative viability ([18]; first compound 0.001 µM): 0.152
relative viability ([18]; first compound 0.03162 µM): 0.1
relative viability ([18]; first compound 0.1 µM): 0.0459
relative viability ([19]; first compound 0.001 µM): 0.484
relative viability ([19]; first compound 0.003162 µM): 0.605
relative viability ([19]; first compound 0.01 µM): 0.521
relative viability ([19]; first compound 0.03162 µM): 0.558
relative viability ([19]; first compound 0.1 µM): 0.619
relative viability ([20]; first compound 0.001 µM): 0.799
relative viability ([20]; first compound 0.003162 µM): 0.972
relative viability ([20]; first compound 0.01 µM): 1.01
relative viability ([20]; first compound 0.03162 µM): 0.619
relative viability ([20]; first compound 0.1 µM): 0.68
relative viability ([21]; first compound 0.001 µM): 0.665
relative viability ([21]; first compound 0.003162 µM): 0.67
relative viability ([21]; first compound 0.01 µM): 0.725
relative viability ([21]; first compound 0.03162 µM): 0.672
relative viability ([21]; first compound 0.1 µM): 0.68
relative viability ([22]; first compound 0.001 µM): 0.736
relative viability ([22]; first compound 0.003162 µM): 0.932
relative viability ([22]; first compound 0.01 µM): 0.91
relative viability ([22]; first compound 0.03162 µM): 0.621
relative viability ([22]; first compound 0.1 µM): 0.426
relative viability ([23]; first compound 0.001 µM): 0.304
relative viability ([23]; first compound 0.003162 µM): 0.292
relative viability ([23]; first compound 0.01 µM): 0.287
relative viability ([23]; first compound 0.03162 µM): 0.293
relative viability ([23]; first compound 0.1 µM): 0.286
